According to patent publication US11447517B2, “Galactoside inhibitor of galectins” (GALECTO BIOTECH AB, priority 2018, dated 2022):

Experiments:
[1] = Uptake over CACO-2 cell monolayers; assay type: in vitro ADME; settings: human; for Papp A→B: apical to basolateral; for Papp B→A: basolateral to apical; for efflux ratio: read-out: Efflux ratio Papp (B > A/A > B)
Source text: Uptake of a drug over the intestine can be predicted measuring the uptake over a monolayer of CACO-2 cells measured as Papp(10^-6 cm/s). […] By introduction of small alkyl substituents to the galactoside 2-OH such as compounds of formula (1) results in low or no efflux combined with a high uptake (Papp >10 10^-6 cm/s) over CACO-2 cells from the apical to the basolateral side of the cells.

galectin-3 = galectin-3 (Homo sapiens (Human), UniProt P17931); experiment: Fluorescence anisotropy assay, inhibition of galectin / fluorescein tagged saccharide probe interaction; assay type: binding
Sequence of galectin-3 (P17931 whole entry): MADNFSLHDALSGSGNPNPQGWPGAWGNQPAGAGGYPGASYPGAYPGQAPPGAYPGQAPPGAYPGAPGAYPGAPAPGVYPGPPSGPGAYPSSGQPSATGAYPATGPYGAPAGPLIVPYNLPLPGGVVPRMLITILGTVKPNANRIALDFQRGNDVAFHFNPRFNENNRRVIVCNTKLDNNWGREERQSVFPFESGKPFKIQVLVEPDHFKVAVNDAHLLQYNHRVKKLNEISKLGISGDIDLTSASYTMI
Protocol: Evaluation of Kd Values The affinity of Example 1-71 for galectins were determined by a fluorescence anisotropy assay where the compound was used as an inhibitor of the interaction between galectin and a fluorescein tagged saccharide probe as described Sörme, P., Kahl-Knutsson, B., Huflejt, M., Nilsson, U. J., and Leffler H. (2004) Fluorescence polarization as an analytical tool to evaluate galectin-ligand interactions. Anal. Biochem. 334: 36-47, (Sörme et al., 2004) and Monovalent interactions of Galectin-1 By Salomonsson, Emma; Larumbe, Amaia; Tejler, Johan; Tullberg, Erik; Rydberg, Hanna; Sundin, Anders; Khabut, Areej; Frejd, Torbjorn; Lobsanov, Yuri D.; Rini, James M.; et al, From Biochemistry (2010), 49(44), 9518-9532, (Salomonsson et al., 2010). […] 100 nM albumin was included as a carrier to prevent protein loss at such low concentration of galectin.

Row | SMILES | Kd (galectin-3) | other results
1 | OCC1O[C@H](Sc2cncc(Cl)c2)C(O)[C@@H](n2cc(-c3cc(F)c(F)c(F)c3)nn2)[C@H]1O (some centres unmarked) |  | Papp A→B [1]: 4 ×10⁻⁶ cm/s; Papp B→A [1]: 36 ×10⁻⁶ cm/s; efflux ratio [1]: 9
2 | Cc1ccc(-c2cn([C@@H]3C(O)[C@@H](Sc4cc(Cl)cnc4C#N)OC(CO)[C@@H]3O)nn2)cc1F (some centres unmarked) |  | Papp A→B [1]: 3 ×10⁻⁶ cm/s; Papp B→A [1]: 30 ×10⁻⁶ cm/s; efflux ratio [1]: 10
3 | CC(C)O[C@@H]1[C@@H](n2cc(-c3cc(F)c(F)c(F)c3)nn2)[C@@H](O)[C@@H](CO)O[C@@H]1Sc1cncc(Br)c1 [Example 18, 5-Bromopyridin-3-yl 3-deoxy-3-[4-(3,4,5-trifluorophenyl)-1H-1,2,3-triazol-1-yl]-2-O-isopropyl-1-thio-α-D-galactopyranoside] | 150 nM | 
4 | CO[C@@H]1[C@@H](n2cc(-c3cc(F)c(F)c(F)c3)nn2)[C@@H](O)[C@@H](CO)O[C@@H]1Sc1cc(Cl)cnc1-c1nccs1 [Example 31, 5-Chloro-2-(thiazol-2-yl)pyridin-3-yl 3-deoxy-3-[4-(3,4,5-trifluorophenyl)-1H-1,2,3-triazol-1-yl]-2-O-methyl-1-thio-α-D-galactopyranoside] | 300 nM | 
5 | OCCO[C@@H]1[C@@H](n2cc(-c3cc(F)c(Cl)c(F)c3)nn2)[C@@H](O)[C@@H](CO)O[C@@H]1Sc1ccc(Cl)c(Cl)c1 [Example 21, 3,4-Dichlorophenyl 3-[4-(4-chloro-3,5-difluorophenyl)-1H-1,2,3-triazol-1-yl]-3-deoxy-2-O-(2-hydroxyethyl)-1-thio-α-D-galactopyranoside] | 58 nM | 
6 | CO[C@@H]1[C@@H](n2cc(-c3cc(F)c(Cl)c(F)c3)nn2)[C@@H](O)[C@@H](CO)O[C@@H]1Sc1ccc(Cl)c(Cl)c1 [Example 71, 3,4-Dichlorophenyl 3-[4-(4-chloro-3,5-difluorophenyl)-1H-1,2,3-triazol-1-yl]-3-deoxy-2-O-methyl-1-thio-α-D-galactopyranoside] | 250 nM | 
7 | CO[C@@H]1[C@@H](n2cc(-c3cc(F)c(F)c(F)c3)nn2)[C@@H](O)[C@@H](CO)O[C@@H]1Sc1cncc(C#N)c1 [Example 59, 5-Cyanopyridin-3-yl 3-deoxy-3-[4-(3,4,5-trifluorophenyl)-1H-1,2,3-triazol-1-yl]-2-O-methyl-1-thio-α-D-galactopyranoside] | 76 nM | 
8 | CO[C@@H]1[C@@H](n2cc(-c3ccc(Cl)c(F)c3)nn2)[C@@H](O)[C@@H](CO)O[C@@H]1Sc1cncc(Br)c1 [Example 38, 5-Bromopyridin-3-yl 3-[4-(4-chloro-3-fluorophenyl)-1H-1,2,3-triazol-1-yl]-3-deoxy-2-O-methyl-1-thio-α-D-galactopyranoside] | 62 nM | 
9 | CO[C@@H]1[C@@H](n2cc(-c3cc(F)c(Cl)c(F)c3)nn2)[C@@H](O)[C@@H](CO)O[C@@H]1Sc1cc(Cl)ccc1C(=O)N1CCCCC1 [Example 6, 2-(N-piperidinyl-carbonyl)-5-chlorophenyl 3-[4-(4-chloro-3,5-difluorophenyl)-1H-1,2,3-triazol-1-yl]-3-deoxy-2-O-methyl-1-thio-α-D-galactopyranoside] | 120 nM | 
10 | CO[C@@H]1[C@@H](n2cc(-c3cc(F)c(F)c(F)c3)nn2)[C@@H](O)[C@@H](CO)O[C@@H]1Sc1cnc(C#N)c(Cl)c1 [Example 45, 3-Chloro-2-cyanopyridin-5-yl 3-deoxy-3-[4-(3,4,5-trifluorophenyl)-1H-1,2,3-triazol-1-yl]-2-O-methyl-1-thio-α-D-galactopyranoside] | 65 nM | 
11 | N#Cc1ncc(Cl)cc1S[C@H]1OC(CO)[C@H](O)[C@H](n2cc(-c3cc(F)c(Cl)c(F)c3)nn2)C1O (some centres unmarked) |  | Papp A→B [1]: 5 ×10⁻⁶ cm/s; Papp B→A [1]: 46 ×10⁻⁶ cm/s; efflux ratio [1]: 9

Continued by falling Kd (galectin-3), values first:

Row | Kd (galectin-3) | SMILES | other results
12 | 56 nM | CO[C@@H]1[C@@H](n2cc(-c3cc(F)c(F)c(F)c3)nn2)[C@@H](O)[C@@H](CO)O[C@@H]1Sc1cc(Cl)cnc1-c1ncco1 [Example 30, 5-Chloro-2-(oxazol-2-yl)pyridin-3-yl 3-deoxy-3-[4-(3,4,5-trifluorophenyl)-1H-1,2,3-triazol-1-yl]-2-O-methyl-1-thio-α-D-galactopyranoside] | 
13 | 50 nM | CO[C@@H]1[C@@H](n2cc(-c3cc(F)c(Cl)c(F)c3)nn2)[C@@H](O)[C@@H](CO)O[C@@H]1Sc1cc(C)cnc1C#N [Example 49, 2-Cyano-5-methylpyridin-3-yl 3-[4-(4-chloro-3,5-difluorophenyl)-1H-1,2,3-triazol-1-yl]-3-deoxy-2-O-methyl-1-thio-α-D-galactopyranoside] | 
14 | 50 nM | CO[C@@H]1[C@@H](n2cc(-c3cc(F)c(C)c(F)c3)nn2)[C@@H](O)[C@@H](CO)O[C@@H]1Sc1cc(Cl)ccc1C#N [Example 14, 5-Chloro-2-cyanophenyl 3-deoxy-3-[4-(3,5-difluoro-4-methylphenyl)-1H-1,2,3-triazol-1-yl]-2-O-methyl-1-thio-α-D-galactopyranoside] | 
15 | 49 nM | COC1[C@@H](Sc2cc(Cl)cnc2N2CC3(COC3)C2)OC(CO)[C@H](O)[C@@H]1n1cc(-c2cc(F)c(Cl)c(F)c2)nn1 (stereo partly drawn) [Example 11, 5-Chloro-2-{N-(2-oxa)-6-azaspiro[3.3]heptanyl}-pyridin-3-yl 3-[4-(4-chloro-3,5-difluorophenyl)-1H-1,2,3-triazol-1-yl]-3-deoxy-2-O-methyl-1-thio-α-D-galactopyranoside] | 
16 | 37 nM | CO[C@@H]1[C@@H](n2cc(-c3ccc(Cl)c(F)c3)nn2)[C@@H](O)[C@@H](CO)O[C@@H]1Sc1cc(Br)cnc1C#N [Example 51, 5-Bromo-2-cyanopyridin-3-yl 3-[4-(4-chloro-3-fluorophenyl)-1H-1,2,3-triazol-1-yl]-3-deoxy-2-O-methyl-1-thio-α-D-galactopyranoside] | 
17 | 36 nM | CO[C@@H]1[C@@H](n2cc(-c3cc(F)c(F)c(F)c3)nn2)[C@@H](O)[C@@H](CO)O[C@@H]1Sc1cc(Cl)cnc1C1=CCNCC1 [Example 28, 5-Chloro-2-(1,2,3,6-tetrahydropyridin-4-yl)pyridin-3-yl 3-deoxy-3-[4-(3,4,5-trifluorophenyl)-1H-1,2,3-triazol-1-yl]-2-O-methyl-1-thio-α-D-galactopyranoside] | 
18 | 28 nM | CO[C@@H]1[C@@H](n2cc(-c3cc(F)c(F)c(F)c3)nn2)[C@@H](O)[C@@H](CO)O[C@@H]1Sc1cc(Cl)cnc1-c1cncnc1 [Example 24, 5-Chloro-2-(pyrimidin-5-yl)pyridin-3-yl 3-deoxy-3-[4-(3,4,5-trifluorophenyl)-1H-1,2,3-triazol-1-yl]-2-O-methyl-1-thio-α-D-galactopyranoside] | 
19 | 12 nM | CO[C@@H]1[C@@H](n2cc(-c3cc(F)c(C)c(F)c3)nn2)[C@@H](O)[C@@H](CO)O[C@@H]1Sc1cc(Cl)cnc1C#N [Example 12, 5-Chloro-2-cyanopyridin-3-yl 3-deoxy-3-[4-(3,5-difluoro-4-methylphenyl)-1H-1,2,3-triazol-1-yl]-2-O-methyl-1-thio-α-D-galactopyranoside] | 
20 | 7 nM | CO[C@@H]1[C@@H](n2cc(-c3ccc(C)c(F)c3)nn2)[C@@H](O)[C@@H](CO)O[C@@H]1Sc1cc(Cl)ccc1C(=O)N1CCC1 [Example 41, 2-(N-azetidinyl-carbonyl)-5-chlorophenyl 3-deoxy-3-[4-(3-fluoro-4-methylphenyl)-1H-1,2,3-triazol-1-yl]-2-O-methyl-1-thio-α-D-galactopyranoside] | 
